# Patent US11267800B2, “Cyclohexyl acid triazole azines as LPA antagonists” (BRISTOL-MYERS SQUIBB COMPANY, priority 2017, dated 2022)
# Target: T1, human LPA1 (Homo sapiens, UniProt Q92633)
# T1 construct: expressed in transfected cells; host or cells: Chinese hamster ovary (CHO) cells
# Test: LPA1 functional antagonist assay (calcium flux)
# Format: cell-based
# Conditions: CHO cells overexpressing human LPA1; inhibition of calcium flux induced by 10 nM LPA; read-out: hLPA1 IC50
# In short: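 IC50 values come from 4-parameter logistic fits and mark 50% block of the calcium flux evoked by 10 nM LPA. Human LPA1-overexpressing CHO cells were calcium-dye loaded at 37 °C, then given test compound (0.08 nM–5 μM, 0.5% DMSO, HEPES-buffered HBSS with 0.1% fatty-acid-free BSA) for 20 min at room temperature before agonist.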
# T1 sequence (Q92633 whole entry): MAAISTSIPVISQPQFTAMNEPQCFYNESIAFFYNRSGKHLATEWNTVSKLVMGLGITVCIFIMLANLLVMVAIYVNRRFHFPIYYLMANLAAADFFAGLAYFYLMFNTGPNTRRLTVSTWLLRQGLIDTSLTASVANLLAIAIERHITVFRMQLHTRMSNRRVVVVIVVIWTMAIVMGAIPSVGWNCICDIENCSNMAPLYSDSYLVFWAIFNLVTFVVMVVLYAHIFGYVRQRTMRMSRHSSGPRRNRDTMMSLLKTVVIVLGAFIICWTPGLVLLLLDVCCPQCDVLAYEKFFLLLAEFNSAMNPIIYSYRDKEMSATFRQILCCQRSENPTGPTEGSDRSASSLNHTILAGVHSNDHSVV
row,IC50,SMILES
1,0.043 µM,"CCCc1cccc(Nc2c(-c3ccc(O[C@H]4CCC[C@H](C(=O)O)C4)cn3)nnn2C)n1 [Example 244, (1S,3S)-3-((6-(1-methyl-5-((6-propylpyridin-2-yl)amino)-1H-1,2,3-triazol-4-yl)pyridin-3-yl)oxy) cyclohexane-1-carboxylic acid]"
2,0.022 µM,Cc1nc(-c2nnn(C)c2COc2cc(C(F)F)ccn2)ccc1O[C@H]1CCC[C@H](C(=O)O)C1 [Example 315]
3,0.378 µM,COc1nccc(OCc2c(-c3ccc(O[C@H]4CCC[C@H](C(=O)O)C4)c(C)n3)nnn2C)n1 [Example 344]
4,0.078 µM,CCc1ncnc(OCc2c(-c3ccc(O[C@H]4CCC[C@H](C(=O)O)C4)c(C)n3)nnn2C)c1C [Example 293]
5,0.034 µM,Cc1nc(-c2nnn(C)c2CNc2ncc(F)c(NCC(C)C)n2)ccc1O[C@H]1CCC[C@H](C(=O)O)C1 [Example 60]
6,1.88 µM,[2H]C([2H])([2H])C([2H])([2H])Oc1nccc(NCc2c(-c3ccc(O[C@H]4CCC[C@H](C(=O)O)C4)c(C)n3)nnn2C)n1 [Example 258]
7,0.135 µM,Cc1nc(-c2nnn(C)c2COc2cc(C(C)(C)C)ncn2)ccc1O[C@H]1CCC[C@H](C(=O)O)C1 [Example 286]
8,0.08 µM,Cc1nc(-c2nnn(C)c2CNc2nccc(OCC(F)F)n2)ccc1O[C@H]1CCC[C@H](C(=O)O)C1 [Example 79]
9,0.679 µM,"Cc1nc(-c2nnn(C)c2CCNc2nccc(C(C)(C)C)n2)ccc1O[C@H]1CCC[C@H](C(=O)O)C1 [Example 400, (1S,3S)-3-((6-(5-(2-((4-(tert-butyl)pyrimidin-2-yl)amino)ethyl)-1-methyl-1H-1,2,3-triazol-4-yl)-2-methylpyridin-3-yl)oxy)cyclohexane-1-carboxylic acid]"
10,0.053 µM,"CCCOc1nccc(Nc2c(-c3ccc(O[C@H]4CCC[C@H](C(=O)O)C4)c(C)n3)nnn2C)n1 [Example 238, (1S,3S)-3-((2-methyl-6-(1-methyl-5-((2-propoxypyrimidin-4-yl)amino)-1H-1,2,3-triazol-4-yl)pyridin-3-yl)oxy)cyclohexane-1-carboxylic acid]"
11,0.105 µM,Cc1nc(-c2nnn(C)c2CNc2nccc(Oc3ccccc3)n2)cnc1O[C@H]1CCC[C@H](C(=O)O)C1 [Example 130]
12,0.012 µM,CCCCc1cncc(NCc2c(-c3ccc(O[C@H]4CCC[C@H](C(=O)O)C4)c(C)n3)nnn2C)n1 [Example 382]
13,0.145 µM,Cc1nc(-c2nnn(C)c2CNc2ccnc(OC(C)C)n2)ccc1O[C@H]1CCC[C@H](C(=O)O)C1 [Example 25]
14,0.318 µM,"CCCc1ccnc(Nc2c(-c3ccc(O[C@H]4CCC[C@H](C(=O)O)C4)cn3)nnn2C)n1 [Example 247, (1S,3S)-3-((6-(1-methyl-5-((4-propylpyrimidin-2-yl)amino)-1H-1,2,3-triazol-4-yl)pyridin-3-yl)oxy) cyclohexane-1-carboxylic acid]"
15,0.246 µM,Cc1nc(-c2nnn(C)c2CNc2cc(OC3CCC3)ccn2)ccc1O[C@H]1CCC[C@H](C(=O)O)C1 [Example 180]
16,0.365 µM,COc1ccnc(OCc2c(-c3ccc(O[C@H]4CCC[C@H](C(=O)O)C4)c(C)n3)nnn2C)c1 [Example 281]
17,0.065 µM,"Cc1nc(-c2nnn(C)c2COc2ncc(F)c(NC(C)C)n2)ccc1O[C@H]1CCC[C@H](C(=O)O)C1 [Example 252, (1S,3S)-3-((6-(5-(((5-fluoro-4-(isopropylamino)pyrimidin-2-yl)oxy)methyl)-1-methyl-1H-1,2,3-triazol-4-yl)-2-methylpyridin-3-yl)oxy)cyclohexane-1-carboxylic acid]"
18,0.106 µM,COc1cnc(NCc2c(-c3ccc(O[C@H]4CCC[C@H](C(=O)O)C4)c(C)n3)nnn2C)nc1C1CCC1 [Example 121]
19,0.381 µM,Cc1nc(-c2nnn(C)c2CNc2ccnc(OCC(C)C)n2)ccc1O[C@H]1CCC[C@H](C(=O)O)C1 [Example 92]
20,0.448 µM,Cc1nc(-c2nnn(C)c2CNc2ncccc2OC(C)C)ccc1O[C@H]1CCC[C@H](C(=O)O)C1 [Example 118]

row,IC50,SMILES
1,0.152 µM,Cc1cccc(Oc2ccnc(NCc3c(-c4ccc(O[C@H]5CCC[C@H](C(=O)O)C5)c(C)n4)nnn3C)n2)c1 [Example 108]
2,0.022 µM,Cc1nc(-c2nnn(C)c2CNc2nccc(Oc3ccc(F)cc3)n2)ccc1O[C@H]1CCC[C@H](C(=O)O)C1 [Example 110]
3,0.041 µM,Cc1nc(-c2nnn(C)c2COc2ccnc(C(C)C)n2)ccc1O[C@H]1CCC[C@H](C(=O)O)C1 [Example 287]
4,0.165 µM,"CCOc1ccnc(Nc2c(-c3ccc(O[C@H]4CCC[C@H](C(=O)O)C4)c(C)n3)nnn2C)n1 [Example 229, (1S,3S)-3-((6-(5-((4-ethoxypyrimidin-2-yl)amino)-1-methyl-1H-1,2,3-triazol-4-yl)-2-methylpyridin-3-yl)oxy)cyclohexane-1-carboxylic acid]"
5,0.024 µM,CCc1nc(-c2nnn(C)c2CNc2nccc(C3CCC3)n2)ccc1O[C@H]1CCC[C@H](C(=O)O)C1 [Example 387]
6,0.094 µM,"CCC(C)c1ncnc(NCc2c(-c3ccc(O[C@H]4CCC[C@H](C(=O)O)C4)c(C)n3)nnn2C)n1 (mixture of isomers) [Example 197, (1S,3S)-3-((6-(5-(((4-(sec-Butyl)-1,3,5-triazin-2-yl)amino)methyl)-1-methyl-1H-1,2,3-triazol-4-yl)-2-methylpyridin-3-yl)oxy)cyclohexane-1-carboxylic acid]"
7,0.081 µM,Cn1nnc(-c2ccc(O[C@H]3CCC[C@H](C(=O)O)C3)cn2)c1COc1cc(C(F)F)ncn1 [Example 353]
8,0.09 µM,Cc1nc(-c2nnn(C)c2CNc2ncnc(C3CCCC3)n2)ccc1O[C@H]1CCC[C@H](C(=O)O)C1 [Example 184]
9,0.016 µM,Cc1nc(-c2nnn(C)c2CNc2nccc(-c3ccccc3F)n2)ccc1O[C@H]1CCC[C@H](C(=O)O)C1 [Example 20]
10,0.416 µM,Cc1nc(-c2nnn(C)c2COc2cc(-n3cnnc3C)ncn2)ccc1O[C@H]1CCC[C@H](C(=O)O)C1 [Example 314]
11,3.28 µM,COc1ncnc(OCc2c(-c3ccc(O[C@H]4CCC[C@H](C(=O)O)C4)c(C)n3)nnn2C)c1C [Example 291]
12,0.0087 µM,Cc1nc(-c2nnn(C)c2COc2cc(OC3CC3)ccn2)ccc1O[C@H]1CCC[C@H](C(=O)O)C1 [Example 276]
13,0.046 µM,CCc1ccnc(NCc2c(-c3ccc(O[C@H]4CCC[C@H](C(=O)O)C4)c(C)n3)nnn2C)n1 [Example 40]
14,0.043 µM,Cc1nc(-c2nnn(C)c2CNc2nccc(C3CC3C)n2)ccc1O[C@H]1CCC[C@H](C(=O)O)C1 (stereo partly shown) [Example 154]
15,0.008 µM,Cn1nnc(-c2ccc(O[C@H]3CCC[C@H](C(=O)O)C3)cn2)c1CNc1nccc(-c2ccccc2)n1 [Example 26]
16,0.042 µM,CCCOCc1ccnc(NCc2c(-c3ccc(O[C@H]4CCC[C@H](C(=O)O)C4)c(C)n3)nnn2C)n1 [Example 324]
17,0.132 µM,CCOc1ccnc(NCc2c(-c3ccc(O[C@H]4CCC[C@H](C(=O)O)C4)c(C)n3)nnn2C)c1 [Example 68]
18,0.039 µM,Cc1nc(-c2nnn(C)c2COc2cc(-n3cccc3)ncn2)ccc1O[C@H]1CCC[C@H](C(=O)O)C1 [Example 358]
19,0.112 µM,Cc1nc(-c2nnn(C)c2CNc2nccc(OCC3(F)CC3)n2)ccc1O[C@H]1CCC[C@H](C(=O)O)C1 [Example 337]
20,0.052 µM,Cc1nc(-c2nnn(C)c2CNc2nccc(OCC(C)(C)F)n2)ccc1O[C@H]1CCC[C@H](C(=O)O)C1 [Example 56]
